According to publication PMC12583827, “Harnessing microbial-derived metabolites in the urinary tract to prevent infection induced catheter encrustation” (Nature Communications, 2025):
Where a name gives a salt, the structure may show the parent alone. Read-outs that look alike come from different tables or passages of the source.

Assays:
[1] = biological target: T1, urease of P. mirabilis HI4320 cell free extracts (Proteus mirabilis, UniProt P17086); assay type: biochemical
T1 construct: 20ul of cell-free extract were distributed into a 96-well plate in place of the whole cell bacterial suspensions; endogenous in cells; host or cells: Proteus mirabilis HI4320, urea-induced; freeze-thaw and sonication lysate, clarified supernatant
T1 sequence (P17088 whole entry): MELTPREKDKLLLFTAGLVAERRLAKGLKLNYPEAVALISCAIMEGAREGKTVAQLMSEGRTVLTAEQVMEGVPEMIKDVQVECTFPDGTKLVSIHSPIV
T1 sequence (P17086 whole entry): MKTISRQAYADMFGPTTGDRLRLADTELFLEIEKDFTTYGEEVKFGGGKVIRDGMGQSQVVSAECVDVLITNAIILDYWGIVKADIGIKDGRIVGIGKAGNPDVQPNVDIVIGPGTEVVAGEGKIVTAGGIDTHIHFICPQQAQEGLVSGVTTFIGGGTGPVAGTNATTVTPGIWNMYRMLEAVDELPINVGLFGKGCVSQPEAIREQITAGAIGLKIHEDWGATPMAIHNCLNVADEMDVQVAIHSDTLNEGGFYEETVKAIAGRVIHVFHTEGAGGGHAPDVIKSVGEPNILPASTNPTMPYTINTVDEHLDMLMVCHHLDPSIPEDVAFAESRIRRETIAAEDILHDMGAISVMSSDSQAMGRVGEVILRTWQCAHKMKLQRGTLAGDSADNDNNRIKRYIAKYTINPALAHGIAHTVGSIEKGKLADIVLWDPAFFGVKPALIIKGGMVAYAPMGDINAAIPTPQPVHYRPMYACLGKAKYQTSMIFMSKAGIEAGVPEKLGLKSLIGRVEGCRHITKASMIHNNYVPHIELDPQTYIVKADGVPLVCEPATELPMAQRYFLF
T1 sequence (P17087 whole entry, further chain): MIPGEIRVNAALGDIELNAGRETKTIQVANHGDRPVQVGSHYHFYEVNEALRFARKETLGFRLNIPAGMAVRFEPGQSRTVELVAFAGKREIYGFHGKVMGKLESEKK
Method: To measure urease activity of the cell free extracts of P. mirabilis, P. mirabilis was cultured for ~18 h in LB broth and then sub cultured until it reached mid-log growth phase (OD600 0.2-0.5). Cultures were spun down to pellet at 10,000 rcf for 10 minutes and resuspended in saline to a final OD600 of 1.0. Cultures were then diluted 1:10 in potassium phosphate buffer pH7 supplemented with 500 mM urea and incubated at 37 °C with shaking for 1 h to induce its urease enzyme production. The isogenic urease mutant Pm ureF::kan (Supplementary Data 1) served as negative control. Cultures then were spun down to pellet at 10,000 rcf for 10 minutes and resuspended in 2 mL saline. Cultures were subjected to four cycles of freezing in liquid nitrogen and thawing in a 37 °C water bath. Cultures were then probe sonicated (on ice) at 25% amplitude for 10 sec. Sonicated cultures were centrifuged at 18,900 Xg for 5 min and supernatants were transferred to a clean tube and stored on ice. To measure urease activity of cell free extracts, the previously described assay was modified such that 20ul of cell-free extract were distributed into a 96-well plate in place of the whole cell bacterial suspensions. Acetohydroxamic acid (AHA), was used as a positive control. Percent of maximum urease activity was calculated using Area Under the Curve (AUC) relative to untreated cell free extracts of P. mirabilis.

[2] = biological target: T2, P. mirabilis urease (Proteus mirabilis, UniProt P17086); assay type: cell-based; conditions: for Compound 2 %I alone: kphos; for Combination index (CI): in combination with AHA
T2 construct: it utilizes whole bacterial cells, rather than isolated enzyme preparations; endogenous in cells; host or cells: Proteus mirabilis HI4320, live whole cells
T2 sequence (P17086 whole entry): as the sequence (P17086 whole entry) above
T2 sequence (P17088 whole entry, further chain): as the sequence (P17088 whole entry) above
T2 sequence (P17087 whole entry, further chain): as the sequence (P17087 whole entry, further chain) above
Method: To assess the synergistic effects of dampening metabolites when used in combination with each other, P. mirabilis urease activity was measured as described above. Between 4-6 different concentrations for each dampening metabolite were tested both alone and in combination (See Fig. 6a for example). […] To account for variability between experiments, all conditions tested were performed on a single 96-well plate with three technical replicates for each condition. To compare between biologic replicates, percent inhibition relative to untreated P. mirabilis was calculated for each condition using the average area under the curve over 120-180 minutes (so that the positive control activity curve saturated without any increase in the negative control curve).
Statistical analysis was conducted using a one sample T test of the combination index compared to a hypothetical value of 1 (additive effect). […] Therefore, combination indexes were calculated using a desired effect size less than 40% were indicated with an * in Fig. 6b and in Supplementary Data 5.

[3] = biological target: T2, P. mirabilis urease; assay type: cell-based; conditions: for effect on P. mirabilis urease activity (whole cell): potassium phosphate buffer, dose response
Method: Urease activity was measured as described previously in triplicate with at least three biological replicates[21]. Briefly, bacteria were cultured for ~18 h in LB broth, concentrated to an OD600 of 4, washed once in saline, and diluted (1:10 for P. mirabilis and 1:50 for P. stuartii and M. morganii) into candidate dampening metabolites in potassium phosphate buffer or human urine pH7 and supplemented with 500 mM urea and 0.01% phenol red. Bacterial suspensions were distributed into a 96-well plate, incubated at 37 °C with double-orbital shaking in a Synergy H1 plate reader (BioTek), and absorbance (OD562) was measured every 60 seconds for 180 minutes. Isogenic urease mutants (Supplementary Data 1) served as negative controls for P. mirabilis and P. stuartii and a vehicle control served as a negative control for M. morganii.

[4] = biological target: T3, urease of P. mirabilis cell free extracts (Proteus mirabilis, UniProt P17086); assay type: biochemical; conditions: for type of urease inhibition: Michaelis-Menten parameters, Lineweaver-Burke plot
T3 construct: 20ul of cell-free extract were distributed into a 96-well plate in place of the whole cell bacterial suspensions; endogenous in cells; host or cells: Proteus mirabilis HI4320, urea-induced; freeze-thaw and sonication lysate, clarified supernatant
T3 sequence (P17086 whole entry): as the sequence (P17086 whole entry) above
T3 sequence (P17088 whole entry, further chain): as the sequence (P17088 whole entry) above
T3 sequence (P17087 whole entry, further chain): as the sequence (P17087 whole entry, further chain) above
Method: For the kinetic analysis of the urease reaction in the presence of urease dampening metabolites, urease activity assays were repeated with the P. mirabilis cell free extracts. Six different inhibitor concentrations that gave linear rates of reaction over a period of 120 min were tested for their effects on urease activity in the presence of urea concentrations ranging from 0 to 500 mM. Simple linear regression was performed on the absorbance (OD562) over 120 minutes for each condition and plotted as Initial velocity (slope) vs urea concentration. These initial hyperbolic plots were converted to double-reciprocal Lineweaver-Burke plots, and the pattern of inhibition inferred from the point of intersection of the lines. Finally, the Ki for a particular compound was determined by plotting the Km/Vmax ratio (the slope of the Lineweaver-Burke plots) of each line as a function of the inhibitor concentration as described by ref. [49]. The X-intercept corresponded to –Ki.

[5] = biological target: T4, Jack Bean Urease (JBU) (Canavalia ensiformis, UniProt P07374); assay type: biochemical; conditions: for JBU activity: 0.1 U JBU, 500 mM urea
T4 construct: purchased Sigma-Aldrich
T4 sequence (P07374 whole entry, looked up): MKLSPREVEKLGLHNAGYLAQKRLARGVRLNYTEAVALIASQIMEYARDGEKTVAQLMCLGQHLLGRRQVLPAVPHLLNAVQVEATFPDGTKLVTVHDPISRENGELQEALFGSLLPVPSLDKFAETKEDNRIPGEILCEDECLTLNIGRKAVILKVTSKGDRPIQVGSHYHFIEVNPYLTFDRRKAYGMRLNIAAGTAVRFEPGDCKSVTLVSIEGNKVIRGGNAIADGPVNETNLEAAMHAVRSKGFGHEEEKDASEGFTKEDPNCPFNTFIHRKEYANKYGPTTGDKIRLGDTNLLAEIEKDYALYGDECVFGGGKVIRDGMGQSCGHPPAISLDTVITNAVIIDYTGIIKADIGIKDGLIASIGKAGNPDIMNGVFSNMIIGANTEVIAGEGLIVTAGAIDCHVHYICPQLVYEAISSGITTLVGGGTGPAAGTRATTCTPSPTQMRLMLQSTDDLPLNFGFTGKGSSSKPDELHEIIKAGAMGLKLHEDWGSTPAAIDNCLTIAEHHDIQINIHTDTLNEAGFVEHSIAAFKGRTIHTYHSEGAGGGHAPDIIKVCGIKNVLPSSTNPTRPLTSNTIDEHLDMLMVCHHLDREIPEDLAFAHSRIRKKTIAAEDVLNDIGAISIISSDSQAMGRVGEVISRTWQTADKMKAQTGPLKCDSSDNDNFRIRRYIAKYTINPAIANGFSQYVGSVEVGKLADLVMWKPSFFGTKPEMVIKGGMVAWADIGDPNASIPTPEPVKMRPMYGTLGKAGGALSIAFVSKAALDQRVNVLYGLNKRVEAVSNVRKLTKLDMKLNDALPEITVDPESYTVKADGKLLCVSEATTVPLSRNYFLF
Method: To measure Jack Bean urease activity, the previously described assay was modified such that 0.1 U (1U liberates 1 µmol of ammonia from urea per minute) of JBU (Sigma-Aldrich urease from Canavalia ensiformis) were distributed into a 96-well plate in place of the bacterial suspensions. Acetohydroxamic acid (AHA), was used as a positive control and a vehicle control was used as a negative control. Percent of maximum urease activity was calculated using Area Under the Curve (AUC) relative to untreated bacteria of interest or untreated JBU. Urease activity measurement in MRSA was adapted from a recently published semi quantitative assay (See Supplementary materials for details)[48].
414 Supplementary Figure 13. Microbial metabolites dampen activity of purified Jack Bean
415 Urease (JBU). 0.1 U of JBU (1U liberates 1 µmol of ammonia from urea per minute) was
416 incubated at 37 °C with shaking in urease-dampening metabolites, 500mM urea, and phenol red.
417 A urea analogue, AHA, served as the positive control for inhibition of JBU. Absorbance
418 (OD562) was measured every 60 seconds for 90 minutes, and activity is expressed as percent of
419 maximum activity (% Max Activity) relative to untreated JBU. Graphs show mean±SD for 3
420 independent experiments with 3 technical replicates each. Data were analyzed by two tailed one
421 sample t-test to a hypothetical value of 100% activity. ***P<0.001, **P<0.002, *P<0.033.
(1 picture or pasted object on this page, not shown here)

Row | SMILES | urease activity of cell free P. mirabilis extracts [1] | Compound 2 %I alone ([2]; Compound 2 [] alone 0.0782, assay date 2024 08 07) | Compound 2 %I alone ([2]; Compound 2 [] alone 0.156, assay date 2024 08 07) | Compound 2 %I alone ([2]; Compound 2 [] alone 0.156, assay date 2024 08 09) | sub-inhibitory concentrations that still decrease P. mirabilis urease activity ([3]; concentrations not inhibiting growth/viability) | Urease dampening activity ([3]; highest concentration tested 0.625mM) | effect on P. mirabilis urease activity (whole cell) [3] | change of estimated Km on addition of metabolite [4] | change of estimated Vmax on addition of metabolite [4] | type of urease inhibition [4] | JBU activity [5] | concentrations required to achieve a significant combination index [2] | Combination index (CI) [2] | Urease dampening activity ([3]; screen of candidate metabolites, highest concentration tested 20mM, * Trending but not statistically significant, listed as Histamine HCl) | concentrations at which JBU activity was significantly inhibited [5] | Dampens urease activity ([3]; biosynthetic pathway/functional group screen, highest concentration tested 20mM)
1 | O.O=C(O)[C@H](O)Cc1cnc[nH]1 [D-imidazole lactate, D-imidazolelactic acid hydrate] | at least partially inhibiting | 34.9% | 60.4% | 49.2% | ≤ 0.0391 mM | Yes | more potent activity profile compared to the L-imidazole lactate | remain roughly unchanged | decrease | non-competitive inhibition | inhibited |  |  |  |  | 
2 | NCCc1c[nH]cn1 [Histamine, histamine dihydrochloride] | at least partially inhibiting |  |  |  |  |  | reproducibly decreased | increase | decrease | mixed inhibitors |  | < 50 mM | < 1 | Yes | > 20 mM | 
3 | Cl.O=C(O)Cc1cnc[nH]1 [4-imidazole acetate, 2-(1H-Imidazol-5-yl)acetic acid hydrochloride] | at least partially inhibiting |  |  |  |  |  | additional hits | increase | decrease | mixed inhibitors | inhibited | < 50 mM | < 1 |  |  | Yes
